The values below come from patent US9018391B2, “Inhibitors of beta-secretase” (Boehringer Ingelheim International GmbH, priority 2012, dated 2015).

A short description of data set [1]: In Vitro Phospholipidosis Assay (Assay 3), Nile red staining. It counts as cell-based, human. Conditions: human, first effect concentration, U937 cells, read-out: Phospholipidosis FEC IC50 μM (assay 3). Here is the method:
(§1) In Vitro Phospholipidosis Assay (Assay 3)
(§2) The phospholipidogenic potential of test compounds was assayed using the human hematopoetic U937 cell line. The test principle was to analyze the phospholipid content by staining the cells with the fluorescent dye Nile red.
(§3) U937 cells were seeded into cell culture plates at 0.5×10^6 cells/mL in RPMI medium containing 10% FBS, 1% DMSO, and 0.005% gentamicin. The cells were cultivated with or without different concentrations of test compound for 48 h under standard culture conditions.
(§4) For harvesting, the cells were centrifuged at 130×g for 4 min and washed once with PBS. Then, 2×0.5 mL cell suspensions were prepared for non-fixed cell measurement (0.5 mL for propidium iodide (PI) viability measurement and 0.5 mL for Nile red measurement).
(§5) The remaining cells were fixed with 3.7% formaldehyde for 30 min. After a further centrifugation step, cells were resuspended with 1.3 mL Nile red working solution (1 μg/mL) and incubated for 5 min at rt. The cell suspension was washed twice with 3 mL PBS and centrifuged with 130×g for 4 min. The supernatant was discarded and the cells were resuspended with 0.5 mL PBS and kept for flow cytometry measurement.
(§6) For Nile red staining of the 0.5 mL non-fixed cell samples, 50 μL of a ready to use Nile red solution (10 μg/mL) were added per sample. Samples were kept on ice for 5 min. Thereafter, they were washed once with 4 mL PBS (4° C., 250×g for 8 min) and finally resuspended in 400 μL PBS and kept for flow cytometry measurement.
(§7) For the viability measurement, 12.5 μL of the ready to use PI solution (10 μg/mL) were added to the 0.5 mL non-fixed cell suspension. After 15 min of incubation on ice, the samples were measured by flow cytometry using a Coulter Epics XL/MCL flow cytometer.
(§8) The viability of the cells of each sample was determined by flow cytometry measurement of the PI content at channel 2 (568-590 nm). Cut-off gates for the fluorescence-dependent differentiation between live and dead cells were defined based on the analysis of cell culture medium control samples.
(§9) Only samples with a cell viability of >=90% relative to control samples were analyzed for phospholipidosis. Each Nile red sample (non-fixed and fixed samples) was measured by flow cytometry at channel 1 (504-541 nm) and channel 4 (660-680 nm).
(§10) For each channel, relative Nile red fluorescence intensity of a test sample was calculated compared to control samples and expressed as a percentage of control fluorescence intensity. The assessment of the phospholipidogenic potential and the first effective concentration (FEC) of a test compound was done manually based on the fluorescence intensities at both wavelengths for the fixed cells, as well as for the non-fixed cells.

Data set [2] has as its system Human Hepatocytes. As to the kind of experiment: In Vitro Hepatocyte Stability Assay (Assay 4). It is filed as in vitro ADME. Conditions: predicted blood clearance as percent of hepatic blood flow. Here is the method: In Vitro Hepatocyte Stability Assay (Assay 4)
The metabolic degradation of test compounds was assayed in a hepatocyte suspension. Cryopreserved hepatocytes were incubated in an appropriate buffer system (e.g., Dulbecco's modified eagle medium plus 3.5 μg glucagon/500 mL, 2.5 mg insulin/500 mL and 3.75 mg/500 mL hydrocortison) containing 5% species serum. Following a 30 min preincubation in an incubator (37° C., 10% CO2), 5 μl of test compound solution (80 μM; from 2 mM in DMSO stock solution diluted 1:25 with medium) were added into 395 μl hepatocyte suspension (cell density in the range 0.25−5×10^6 cells/mL, typically 1×10^6 cells/mL; final concentration of test compound final DMSO concentration […]).
The cells were incubated for six h (incubator, orbital shaker) and samples (25 μl) were taken at 0, 0.5, 1, 2, 4 and 6 h. Samples were transferred into acetonitrile and pelleted by centrifugation (5 min). The supernatant was transferred to a new 96 DeepWell™ plate, evaporated under nitrogen and resuspended. Decline of compound was analyzed by HPLC-MS/MS. CLint (in vitro hepatic intrinsic clearance) was calculated as follows: CLint=Dose/AUC=(C0/CD)/(AUD+Clast/k)×1000/60
C0: initial concentration in the incubation [μM];
CD: cell density of vital cells [cells/mL];
AUD: area under the data [μM×h];
Clast: concentration of last data point [μM];
k: slope of the regression line for compound decline [h^−1].
The calculated in vitro hepatic intrinsic clearance was scaled up to the intrinsic in vivo hepatic clearance (Clint in vivo) and used to predict hepatic in vivo blood clearance (CL) by the use of a liver model (well-stirred model), as follows: CLint,in vivo[mL/min/kg]=(CLint[μL/min/10^6 cells]×hepatocellularity[10^6 cells/g liver]×liver factor [g/kg body weight])/1000 CL[mL/min/kg]=CLint,to vivo×hepatic blood flow[ml/min/kg]/(CLint,in vivo[ml/min/kg]+hepatic blood flow[mL/min/kg])
The in vivo blood clearance was transformed into percent of the hepatic blood flow (% Qh): % Qh=CL[mL/min/kg]/hepatic blood flow[mL/min/kg])×100
Hepatocellularity, human: 1.2×10^7 cells/g liver;
Liver factor, human: 25.7 g/kg body weight;
Hepatic blood flow, human: 21 mL/(min×kg).

The target in data set [3] is hERG channel (Homo sapiens (Human), UniProt Q12809). As to the kind of experiment: hERG-Channel Assay (Assay 2), whole-cell patch clamp in HEK293 cells stably transfected with hERG cDNA. It counts as cell-based. To be noted: for inhibition at 10 µM: human, HEK293 cells stably transfected with hERG cDNA, pH 7.4, 35° C.; for % Inhibition hERG @ 10 μM (assay 2): 35° C. The source says: hERG-Channel Assay (Assay 2)
Sequence of hERG channel (Q12809 whole entry): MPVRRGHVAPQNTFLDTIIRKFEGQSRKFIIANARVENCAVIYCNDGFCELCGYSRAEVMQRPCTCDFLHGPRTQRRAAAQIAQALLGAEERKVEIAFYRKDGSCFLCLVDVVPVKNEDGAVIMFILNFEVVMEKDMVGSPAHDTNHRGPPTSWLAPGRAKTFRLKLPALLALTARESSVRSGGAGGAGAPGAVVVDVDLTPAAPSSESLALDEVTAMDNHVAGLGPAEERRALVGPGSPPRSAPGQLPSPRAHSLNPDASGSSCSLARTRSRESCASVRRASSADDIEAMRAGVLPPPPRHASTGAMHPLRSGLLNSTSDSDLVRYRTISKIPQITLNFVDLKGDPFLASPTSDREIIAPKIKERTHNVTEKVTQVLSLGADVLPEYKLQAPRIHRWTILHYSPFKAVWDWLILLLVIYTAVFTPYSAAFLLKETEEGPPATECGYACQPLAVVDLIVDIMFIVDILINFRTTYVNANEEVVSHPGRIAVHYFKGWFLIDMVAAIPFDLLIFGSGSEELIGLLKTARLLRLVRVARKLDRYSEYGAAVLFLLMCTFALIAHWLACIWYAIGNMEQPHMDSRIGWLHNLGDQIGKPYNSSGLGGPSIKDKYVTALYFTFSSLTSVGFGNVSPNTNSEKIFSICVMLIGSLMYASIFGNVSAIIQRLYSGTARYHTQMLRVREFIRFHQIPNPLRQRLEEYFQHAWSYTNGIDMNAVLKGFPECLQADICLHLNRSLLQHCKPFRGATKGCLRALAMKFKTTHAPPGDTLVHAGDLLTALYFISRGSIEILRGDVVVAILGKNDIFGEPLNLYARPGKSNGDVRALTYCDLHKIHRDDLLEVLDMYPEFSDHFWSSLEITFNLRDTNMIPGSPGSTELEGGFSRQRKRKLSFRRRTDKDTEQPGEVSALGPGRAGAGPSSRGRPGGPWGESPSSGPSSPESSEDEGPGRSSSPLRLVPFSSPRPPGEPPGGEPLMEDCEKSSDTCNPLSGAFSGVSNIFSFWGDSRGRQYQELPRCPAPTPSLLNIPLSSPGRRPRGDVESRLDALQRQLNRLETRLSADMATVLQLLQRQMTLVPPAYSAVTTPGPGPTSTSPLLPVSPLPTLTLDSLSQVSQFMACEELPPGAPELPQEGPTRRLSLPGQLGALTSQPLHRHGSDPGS
Cells: HEK (human embryonic kidney) 293 cells were stably transfected with hERG cDNA.
Cells were superfused with a bath solution containing (mM): NaCl (137), KCl (4.0), MgCl2 (1.0), CaCl2 (1.8), Glucose (10), HEPES (10), pH 7.4 with NaOH. Patch pipettes were made from borosilicate glass tubing using a horizontal puller and filled with pipette solution containing (mM): K-aspartate (130), MgCl2 (5.0), EGTA (5.0), K2ATP (4.0), HEPES (10.0), pH 7.2 with KOH. Resistance of the microelectrodes was in the range between 2 and 5 MΩ.
Stimulation and Recording:
Membrane currents were recorded using an EPC-10 patch clamp amplifier and PatchMaster software. hERG-mediated membrane currents were recorded at 35° C., using the whole-cell configuration of the patch-clamp technique. Transfected HEK293 cells were clamped at a holding potential of −60 mV and hERG-mediated inactivating tail currents were elicited using a pulse pattern with fixed amplitudes (activation/inactivation: 40 mV for 2000 ms; recovery: −120 mV for 2 ms; ramp to 40 mV in 2 ms; inactivating tail current: 40 mV for 50 ms) repeated at 15 s intervals. During each inter-pulse interval, 4 pulses scaled down by a factor of 0.2 were recorded for a P/n leak subtraction procedure. Rs compensation was employed up to a level that safely allowed recording devoid of ringing.
Compound Preparation and Application:
The different concentrations of the test compounds were applied sequentially on each of the different cells investigated. A steady state level of baseline current was measured for at least 6 sweeps prior to the application of the first test compound concentration.
The test compound was dissolved in DMSO to yield a master stock solution which was diluted further in DMSO to stock solutions needed for the lower concentrations. Final dilutions in extracellular buffer were prepared freshly from these stocks by a 1:1000 dilution step each before starting the experiments.
Peak current amplitudes were measured 3 ms after the ramp to +40 mV. For baseline and each concentration, the peak currents of the three last sweeps before application of the next concentration were averaged. Residual currents (I/I0) were calculated for each cell as the fraction of actual average peak current and average baseline peak current.
(hERG is a cardiac potassium channel; its block is linked to QT prolongation.)

The target in data set [4] is truncated human beta-secretase, BACE1 (amino acids 1-454) (Homo sapiens (Human), UniProt P56817). As to the kind of experiment: BACE1 Assay (Assay 1), fluorescence quench assay. It counts as biochemical. To be noted: pH 4.4. Here is the method:
The substrate was dissolved at 1 mg/ml in DMSO.
The assay was performed in the presence of OptiMEM™ (supernatant collected over 24 h and cleared from cellular debris by centrifugation) containing the ectodomain of BACE1, 25 μl water containing the desired 2-fold concentration of test compound and 2% DMSO, 1 μM substrate peptide, 20 mM NaOAc, pH 4.4, and 0.04% Triton-X100 in a total assay volume of 50 μl in a 384 well plate. In general, 25 μl of compound dilution were added to the plate followed by the addition of 10 μl of BACE1 containing OptiMEM™ diluted 1:10 in water with 0.2% Triton X-100. The reaction was started with the addition of 15 μl substrate in NaOAc buffer. The reaction was incubated at rt (dark) in an Envision® multilabel reader (Perkin Elmer) and the cleavage of the substrate was recorded as kinetic for […] at ex: 485 nm, em: 538 nm. Blank wells containing no enzyme were included on each plate.
The intensity of fluorescence was regressed against time in order to derive velocities of reaction in all 384 wells. These velocities were used for calculating percent control using an uninhibited control containing 1% DMSO as 100% and a blank control performed in the absence of enzyme as 0%. IC50 values were calculated by fitting percent control vs. test compound concentration using Assay Explorer®.

In data set [5] the test system is human hematopoetic U937 cell line. As to the kind of experiment: In Vitro Phospholipidosis Assay (Assay 3), Nile red staining. It is filed as cell-based. Conditions: first effect concentration; U937 cells, 48 h; read-out: Phospholipidosis FEC IC50 μM (assay 3). As for the experimental part: as §1, §2, §3, §4, §5, §6, §7, §8, §9, §10

Sequence of truncated human beta-secretase, BACE1 (amino acids 1-454) (P56817 22-454): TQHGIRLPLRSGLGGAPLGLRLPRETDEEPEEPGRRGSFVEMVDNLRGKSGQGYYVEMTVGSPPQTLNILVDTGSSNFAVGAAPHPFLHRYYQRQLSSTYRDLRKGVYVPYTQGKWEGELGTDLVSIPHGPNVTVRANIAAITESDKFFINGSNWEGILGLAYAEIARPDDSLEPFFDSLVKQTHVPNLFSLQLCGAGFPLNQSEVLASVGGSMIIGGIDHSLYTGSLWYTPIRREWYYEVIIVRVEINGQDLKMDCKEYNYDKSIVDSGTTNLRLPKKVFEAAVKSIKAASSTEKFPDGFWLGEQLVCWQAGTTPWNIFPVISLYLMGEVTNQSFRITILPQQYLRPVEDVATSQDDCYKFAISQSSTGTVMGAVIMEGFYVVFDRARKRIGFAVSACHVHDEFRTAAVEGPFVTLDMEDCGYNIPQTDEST

As usually defined, the IC50 is the concentration that gives 50% inhibition. Broadly, the inhibition is the share of the control response that was lost under treatment. Low values mean a response near the control, high ones a response far below the control. For the compound `C[C@@H]1C[C@@]2(Cc3ccc(C#N)cc3[C@]23N=C(N)N(CC2CC(F)(F)C2)C3=O)C[C@H](C)[C@H]1O.O=C(O)C(F)(F)F` [Example 14], the IC50 at 48 h in data set [1] was 200 µM. For the same compound, the “In vitro Human Hepatocytes % Qh @ 1 μM (assay 4)” value in data set [2] was 5.2 % Qh. Further, in data set [3], 10 µM produced 27% inhibition. For the same compound, the IC50 in data set [4] is 4.5 nM.

Consider `C[C@@H]1C[C@@]2(Cc3ccc(C#N)cc3[C@]23N=C(N)N(CCc2ccncc2)C3=O)C[C@H](C)[C@H]1O.O=C(O)C(F)(F)F` [Example 15], for which the IC50 at 48 h in data set [1] was determined as 800 µM. The “In vitro Human Hepatocytes % Qh @ 1 μM (assay 4)” value in data set [2] is 22.9 % Qh. Further, the inhibition at 10 µM in data set [3] is 15.2%. The compound further returned an IC50 in data set [4] of 9.7 nM.

Consider `Cc1cc(CN2C(=O)[C@]3(N=C2N)c2cc(C#N)ccc2C[C@@]32C[C@@H](C)[C@H](O)[C@@H](C)C2)ccn1.O=C(O)C(F)(F)F` [Example 16], for which, in data set [1], the IC50 at 48 h was found to be 200 µM. Also, the “In vitro Human Hepatocytes % Qh @ 1 μM (assay 4)” value in data set [2] was 19 % Qh. In addition, in data set [3], the inhibition at 10 µM turned out to be 1.4%. Moreover, the IC50 in data set [4] was determined as 9.4 nM.

As for `COC1CCC2(CC1)Cc1ccc(C#N)cc1[C@]21N=C(N)N(C)C1=O` (some centres unmarked) [drawing 15, reference compound], the IC50 in data set [5] was determined as 400 µM. Also, the “In vitro Human Hepatocytes % Qh @ 1 μM (assay 4)” value in data set [2] is listed as 14 % Qh. Moreover, in data set [3], the “% Inhibition hERG @ 10 μM (assay 2)” value worked out at 90%.

In the case of `COC1CCC2(CC1)Cc1ccc(C#N)cc1[C@]21N=C(N)N(C)C1=O` (some centres unmarked) [drawing 18, reference compound], the IC50 in data set [5] came to 400 µM. Also, the “In vitro Human Hepatocytes % Qh @ 1 μM (assay 4)” value in data set [2] was 14 % Qh. In addition, the “% Inhibition hERG @ 10 μM (assay 2)” value in data set [3] was 90%.

Turning to `COC1CCC2(CC1)Cc1ccc(C#CC3CC3)cc1C21N=C(N)N(Cc2cncnc2)C1=O` (centres unmarked) [reference compound], the IC50 at 48 h in data set [1] was found to be 25 µM. Besides, the “In vitro Human Hepatocytes % Qh @ 1 μM (assay 4)” value in data set [2] is 36 % Qh. Besides, 10 µM produced 60% inhibition in data set [3]. The same compound had a half-inhibitory concentration (IC50) in data set [4] of 1.1 nM.

For `COCCCOc1ccc2c(c1)C1(N=C(N)N(CC(F)F)C1=O)[C@]1(CC[C@H](OC)CC1)C2` (some centres unmarked) [reference compound], the IC50 at 48 h in data set [1] amounted to 50 µM. The “In vitro Human Hepatocytes % Qh @ 1 μM (assay 4)” value in data set [2] is reported as 43 % Qh. Also, the inhibition at 10 µM in data set [3] was 36%. Moreover, 7.3 nM corresponded to half-maximal inhibition in data set [4] (IC50).
